From patent US20140329905A1, “HISTONE DEACETYLASE 10-INHIBITOR CO-TREATMENT IN CANCER” (Deutsches Krebsforschungszentrum, priority 2011, published 2014)
Read-outs that look alike come from different tables or passages of the source. Each block holds one compound with its values, some of them ahead of it. Peptide text beside a SMILES is read from it. * marks the point of attachment. Cbz = O=C(OCc1ccccc1)*; CH2F = FC*

Experiments:
BE(2)-C cells [1] = assay: Acridine orange FACS quantification of acidic lysosomes; assay type: cell-based, human; conditions: for accumulation of acidic lysosomes (red fluorescence) by a panel of HDAC inhibitors: FIG. 1B, each inhibitor at its applied concentration (Table 1)
Description: For quantification of acidic lysosomes, the amount of green respectively red fluorescence was determined, since the acidification of (auto-)lysosomes causes a shift from green to red fluorescence. […] Therefore, the cytoplasm and nucleolus glow bright green, whereas acidic compartments shine bright red. By comparing the mean red-to-green fluorescence ratio within different cell populations, detection and quantification of the acidic compartment is possible. Cells were stained with phenol red-free medium containing 1 μg/ml acridine orange (Sigma) at 37° C. for 30 min, collected and resuspended in 300 μl phenolred-free medium for FACS analysis.

BE(2)-C cells [2] = assay: ROS detection with CM-H2DCFDA by flow cytometry; assay type: cell-based, human; conditions: for effect on ROS production by HDAC10 targeting: 72 h after HDAC10 siRNA transfection
Description: ROS generation was quantified using CM-H2DCFDA (Molecular Probes) according to the manufacturer's instructions. Cells were incubated for 20 min with 5 μM dye and fluorescence intensity was measured with FACSCalibur and analyzed with CellQuest Pro.

BE(2)-C cells [3] = assay: Caspase-3-like protease (DEVD-ase) activity assay; assay type: cell-based, human; conditions: 6 d after HDAC10 siRNA; z-VAD 20 μM, 3-MA 2 mM
Description: Caspase-3-like protease activity assay. Caspase-3-like protease activity was measured with the Caspase-3 Fluorometric Assay (BioVision) according to the manufacturer's protocol modified as described previously (Oehme et al. (2006), op. cit.). For cell death detection adherent as well as floating cells were collected.

BE(2)-C cells [4] = assay: Western blot of p62 protein levels (autophagic flux); assay type: cell-based, human; conditions: FIG. 13C; high-dose doxorubicin 0.5 μg/ml, 48 h
Description: Western blot analysis was performed as described previously (Oehme et al. (2009), op. cit.). The following antibodies were used: anti-HDAC10 (Sigma), anti-LC3 (Sigma), anti-HDAC6 (Cell Signaling), anti-p62/SQSTM1 (MLB), anti-Hsc70 (Santa Cruz), anti-FLAG-M2 (Sigma) anti-GAPDH (Millipore), anti-Ac-Lysine (rabbit, Cell Signaling) and anti-β-Actin (clone AC-15, Sigma). β-Actin expression served as loading control. Ratios were calculated with the Bio-1D (Version 12.10a) Software. Protein extracts from primary neuroblastoma tumors from patients with the following characteristics were used: NB#1: […], stage 1, MYCN single copy. NB#2: […], stage 1, MYCN single copy. NB#3: […], stage 4, MYCN single copy. NB#4: […], stage 4, MYCN single copy.

IMR32 cells = assay: Cell death by trypan blue staining; assay type: cell-based, human; conditions: FIG. 13A, 0.01, 0.05, 0.1 μg/ml, 24, 48, 72 h, among BE(2)-C, Kelly
Description: (§1) Viability assay. Trypsinized cells were pooled with corresponding supernatant, centrifuged and resuspended in 1.5 ml cell culture media. Cell viability was measured by automated trypan blue staining with Vi-Cell XR Cell Viability Analyzer from Beckman Coulter (Krefeld, Germany).

BE(2)-C cells [5] = assay: Cell death by trypan blue staining; assay type: cell-based, human; conditions: FIG. 13A; 0.01, 0.05, 0.1 μg/ml; 24, 48, 72 h; among BE(2)-C, Kelly, IMR32
Description: as §1

BE(2)-C cells [6] = assay: WST-1 metabolic activity assay; assay type: cell-based, human
Description: (§2) WST-1 Assay. Metabolic activity was determined using the colorimetric WST-1 assay kit from Roche (Mannheim, Germany) as described in the manufacturer's manual.

astrocytes = assay: Acridine orange FACS quantification of acidic lysosomes; assay type: cell-based; conditions: FIG. 1D; human astrocytes, compared with neuroblastoma cells
Description: For quantification of acidic lysosomes, the amount of green respectively red fluorescence was determined, since the acidification of (auto-)lysosomes causes a shift from green to red fluorescence. Acridine orange accumulates in lysosomal particles and the quenching of its fluorescence correlates with the DpH across the lysosomal membrane (Moriyama, Y, Takano, T and Ohkuma, S, (1982) Acridine orange as a fluorescent probe for lysosomal proton pump. J Biochem 92: 1333-6). Therefore, the cytoplasm and nucleolus glow bright green, whereas acidic compartments shine bright red. By comparing the mean red-to-green fluorescence ratio within different cell populations, detection and quantification of the acidic compartment is possible. Cells were stained with phenol red-free medium containing 1 μg/ml acridine orange (Sigma) at 37° C. for 30 min, collected and resuspended in 300 μl phenolred-free medium for FACS analysis. The green (510-530 nm) and the red (>650 nm) fluorescent emission of living cells, stimulated with blue laser (488 nm), were measured with FACSCalibur (Becton Dickinson, San José, Calif.) and analyzed with CellQuest Pro.

[7] = test system: Neuroblastoma cells, medulloblastoma cells (BE(2)-C, Kelly, IMR32, Med8A); assay: WST-1 metabolic activity assay, tumor cells; assay type: cell-based, human; conditions: FIG. 13E; bufexamac 30 μM 6 d, co-treated with low-dose doxorubicin 72 h before assay
Description: as §2

HDAC10 [8] = target: T1, HDAC10 (Homo sapiens, UniProt Q969S8); conditions: read-out: IC50 HDAC10 from literature; cited from earlier work
T1 construct: Reaction Biology Corporation
T1 sequence (Q969S8 1-669): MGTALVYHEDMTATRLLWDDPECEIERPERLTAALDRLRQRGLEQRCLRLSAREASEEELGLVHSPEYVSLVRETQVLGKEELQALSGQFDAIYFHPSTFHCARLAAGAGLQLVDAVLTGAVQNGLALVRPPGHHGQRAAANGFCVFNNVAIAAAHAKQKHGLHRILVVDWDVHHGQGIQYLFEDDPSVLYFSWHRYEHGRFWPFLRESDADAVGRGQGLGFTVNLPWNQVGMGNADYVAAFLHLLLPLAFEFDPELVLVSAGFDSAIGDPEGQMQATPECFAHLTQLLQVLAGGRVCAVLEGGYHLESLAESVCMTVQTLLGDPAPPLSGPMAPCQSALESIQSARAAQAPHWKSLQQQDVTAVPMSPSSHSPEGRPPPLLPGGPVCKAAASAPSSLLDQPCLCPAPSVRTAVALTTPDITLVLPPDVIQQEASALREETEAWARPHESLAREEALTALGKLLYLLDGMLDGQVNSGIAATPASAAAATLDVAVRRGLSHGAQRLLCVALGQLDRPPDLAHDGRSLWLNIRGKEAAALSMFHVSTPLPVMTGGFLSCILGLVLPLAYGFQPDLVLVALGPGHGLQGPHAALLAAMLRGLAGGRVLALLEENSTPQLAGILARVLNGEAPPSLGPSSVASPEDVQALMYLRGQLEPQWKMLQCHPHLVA

HDAC10 [9] = target: T1, HDAC10; assay: In vitro HDAC10 activity assay by Reaction Biology Corporation; assay type: biochemical; conditions: read-out: IC50 HDAC10 from RBC
Description: The inhibitory activity of compounds toward HDAC10 was investigated by Reaction Biology Corporation (Malvern, Pa., USA).

Kelly cells = assay: WST-1 metabolic activity assay; assay type: cell-based, human; conditions: NAC on day 4 and 5, measured day 6
Description: as §2

Compound: COc1ccc(Cn2ccc3ccc(C(=O)NO)cc32)cc1 [PCI-34051]
accumulation of acidic lysosomes (red fluorescence) by a panel of HDAC inhibitors (BE(2)-C cells [1]; BE(2)-C): did not

Compound: O=C(CCCCCCC(=O)Nc1ccc([C@H]2O[C@@H](CSc3nc(-c4ccccc4)c(-c4ccccc4)o3)C[C@@H](c3ccc(CO)cc3)O2)cc1)NO [Tubacin]
accumulation of acidic lysosomes (red fluorescence) by a panel of HDAC inhibitors (BE(2)-C cells [1]; BE(2)-C): did not increase the amount of red fluorescent cells

Compound: CC(=O)N(O)CCCCCNC(=O)CCC(=O)N(O)CCCCCNC(=O)CCC(=O)N(O)CCCCCN [DFO]
effect on ROS production by HDAC10 targeting (BE(2)-C cells [2]): inhibited

Compound: Cn1cnc(=N)c2[nH]cnc21 [3-MA]
effect on HDAC10-knockdown mediated apoptosis (caspase-3 like activity) (BE(2)-C cells [3]): did not affect the induction of cell death upon targeting of HDAC10

Compound: COc1cccc2c1C(=O)c1c(O)c3c(c(O)c1C2=O)C[C@@](O)(C(=O)CO)C[C@@H]3O[C@H]1C[C@H](N)[C@H](O)[C@H](C)O1 [doxorubicin]
autophagic flux, measurable by p62 degradation (BE(2)-C cells [4]): enhanced autophagic flux
sensitivity towards doxorubicin treatment (cell death, % trypan blue positive) (IMR32 cells): highest sensitivity
sensitivity towards doxorubicin treatment (cell death, % trypan blue positive) (BE(2)-C cells [5]): highest resistance

Compound: CCN(CC)CCCC(C)Nc1ccnc2cc(Cl)ccc12 (centres unmarked) [Chloroquine]
induction of acidic lysosomes and late endosomes (BE(2)-C cells [1]; FIG. 2, FIG. 5C, BE(2)-C, chloroquine 25 μM, rapamycin 100 nM): served as positive controls for the induction of acidic lysosomes and late endosomes

Compound: CN1C(=O)C(Cc2c[nH]c3ccccc23)NC1=S (centres unmarked) [necrostatin]
viability (metabolic activity) upon HDAC10 knockdown (BE(2)-C cells [6]; 6 d post-transfection, necrostatin 50 μM in combination with z-VAD 20 μM): completely rescue

Compound: CCCCOc1ccc(CC(=O)NO)cc1 [Bufexamac, 2-(4-butoxyphenyl)-N-hydroxyacetamide]
shift to red fluorescence (acidic lysosomes) (astrocytes): very moderate shift to red fluorescence
accumulation of acidic lysosomes (red fluorescence) by a panel of HDAC inhibitors (BE(2)-C cells [1]; BE(2)-C): significant increase in red fluorescence
effect of bufexamac in NB cells compared to the knockdown of HDAC10 expression (BE(2)-C cells [6]; BE(2)C cells): rather low
metabolic activity (WST-1) (BE(2)-C cells [6]; FIG. 9E, bufexamac 100 μM 3 days, co-treated with doxorubicin 0.1 μg/ml 24 h before assay): strongly reduced metabolic activity
metabolic activity (WST-1) [7]: significantly decreased metabolic activity
IC50 (HDAC10 [8]): 12.3 µM

Compound: Cc1[nH]c2ccccc2c1CCNCc1ccc(/C=C/C(=O)NO)cc1 [Panobinostat (LBH589), (2E)-N-hydroxy-3-[4-({[2-(2-methyl-1H-indol-3-yl)ethyl]amino}methyl)phenyl]acrylamide]
accumulation of acidic lysosomes (red fluorescence) by a panel of HDAC inhibitors (BE(2)-C cells [1]; BE(2)-C): significant increase in red fluorescence

IC50 (HDAC10 [9]): > 10000 µM
Compound: CCCC(CCC)C(=O)O [VPA, valproic acid]
accumulation of acidic lysosomes (red fluorescence) by a panel of HDAC inhibitors (BE(2)-C cells [1]; BE(2)-C): did not increase the amount of red fluorescent cells

Compound: CN(C)Cc1c(C(=O)NCCOc2ccc(C(=O)NO)cc2)oc2ccccc12 [PCI-24781, 3-(dimethylaminomethyl)-N-[2-[4-(hydroxycarbamoyl)-phenoxy]ethyl]-1-benzofuran-2-carboxamide]
accumulation of acidic lysosomes (red fluorescence) by a panel of HDAC inhibitors (BE(2)-C cells [1]; BE(2)-C): significant increase in red fluorescence

Compound: O=C(CCCCCCC(=O)Nc1ccccc1)NO [Vorinostat (SAHA), N-hydroxy-N′-phenyl-octanediamide]
accumulation of acidic lysosomes (red fluorescence) by a panel of HDAC inhibitors (BE(2)-C cells [1]; BE(2)-C): significant increase in red fluorescence

Compound: CC(NC(=O)C(NC(=O)OCc1ccccc1)C(C)C)C(=O)NC(CC(=O)O)C(=O)CF (stereo not drawn) [zVAD] (Cbz-Val-Ala-Asp-CH2F; configuration not given here)
effect on HDAC10-knockdown mediated apoptosis (caspase-3 like activity) (BE(2)-C cells [3]): abolished HDAC10-knockdown mediated induction of apoptosis
viability (metabolic activity) upon HDAC10 knockdown (BE(2)-C cells [6]; 6 d post-transfection, z-VAD 20 μM on day 4 and 5): partly restored viability

Compound: CC(=O)N[C@@H](CS)C(=O)O [NAC]
effect on ROS production by HDAC10 targeting (BE(2)-C cells [2]): inhibited
viability (metabolic activity) upon HDAC10 knockdown (Kelly cells): restored viability of NB cells
viability (metabolic activity) upon HDAC10 knockdown (BE(2)-C cells [6]; BE(2)-C, NAC on day 4 and 5, measured day 6): restored viability of NB cells

Compound: CC(C=CC(=O)NO)=CC(C)C(=O)c1ccc(N(C)C)cc1 (centres unmarked) [TSA, 7-[4-(dimethylamino)phenyl]-N-hydroxy-4,6-dimethyl-7-oxohepta-2,4-dienamide]
accumulation of acidic lysosomes (red fluorescence) by a panel of HDAC inhibitors (BE(2)-C cells [1]; BE(2)-C): significant increase in red fluorescence
ROS generation (BE(2)-C cells [2]; TSA 75 nM, 24 h): TSA-induced ROS generation

Compound: CO/C1=C\C(C)=C\[C@@H](C)[C@@H](O)[C@@H](C)C/C(C)=C/C=C/[C@H](OC)[C@@H]([C@@H](C)[C@@H](O)[C@H](C)[C@@]2(O)C[C@@H](O)[C@H](C)[C@@H](C(C)C)O2)OC1=O [Bafilomycin A1]
effect on TSA-induced shift to red fluorescence (BE(2)-C cells [1]; FIG. 2, co-treatment Baf.A 10 nM with TSA 75 nM): inhibited the TSA-induced shift to red fluorescence
effect on lysosome acidification induced by HDAC10 knockdown (BE(2)-C cells [1]; FIG. 4A, Baf. A 10 nM, HDAC10 siRNA): blocked lysosome acidification induced by HDAC10 knockdown
